From article PMC3345088 (Journal of Immunology (Baltimore, Md. : 1950), 2012)
Where two headings read alike, the source gives them in different places.

Key:
[1] = test system: CD4+ T cells from LTBI donors; test: HLA locus restriction, antibody inhibition IFNγ ELISPOT; format: cell-based, human; conditions: antibodies 10 µg/ml against HLA-DR, DP or DQ
HLA class II alleles = test system: HLA class II alleles; set-up: species or system human
DRB1*01:01 = DRB1*01:01 (Homo sapiens, UniProt P01903+P01911, A100R/D57E/F55L/F60I/F76Y/I96L/L162R/M171V/P40L/Q125E/R42F/V115G/Y59C); test: MHC-peptide binding assay

**Q.** For “ESAT-6 3–17: 15-mer peptide epitope, residues 3–17 of ESAT-6 (Rv3875) (EQQWNFAGIEAAASA; UniProt P9WNK7 3-17, looked up, fragment)”, which “Restricting HLA locus” value ([1]; donor TU25) is on record?
**A.** DQ, DR

**Q.** What does the source list for “CFP10 72–86: 15-mer peptide epitope, residues 72–86 of CFP10 (Rv3874) (ISTNIRQAGVQYSRA; UniProt P9WNK5 72-86, looked up, fragment)”?
**A.** Restricting HLA locus ([1]; donor TU2): DP, DQ, DR; Restricting HLA locus ([1]; donor TU11): DP, DQ, DR

**Q.** How did the “No. donors expressing allele resp.” value (HLA class II alleles) turn out when “CFP10 52–66: 15-mer peptide epitope, residues 52–66 of CFP10 (Rv3874)” was run?
**A.** 4 of 5

**Q.** What about the “No. donors expressing allele resp.” value (HLA class II alleles; listed as CFP10_52–66) of the same substance?
**A.** 4 out of 5

**Q.** “CFP10 40–54: 15-mer peptide epitope, residues 40–54 of CFP10 (Rv3874) (QGQWRGAAGTAAQAA; UniProt P9WNK5 40-54, looked up, fragment)” was tested. Which “Restricting HLA locus” value ([1]; donor TU7) did it give?
**A.** DP, DQ, DR

**Q.** What about the “Donors that responded expressing DRB1*01:01” value (HLA class II alleles) of the same substance?
**A.** 3 of 4

**Q.** And the “Binding to DRB1*01:01” value (DRB1*01:01)?
**A.** high affinity

**Q.** What does the source list for “ESAT-6 73–87: 15-mer peptide epitope, residues 73–87 of ESAT-6 (Rv3875) (ARTISEAGQAMASTE; UniProt P9WNK7 73-87, looked up, fragment)”?
**A.** No. donors expressing allele resp. (HLA class II alleles): 3 of 5; No. donors expressing allele resp. (HLA class II alleles; listed as ESAT-6_72–87): 3 out of 5

**Q.** With “Rv2031c 106–120: 15-mer peptide epitope, residues 106–120 of Rv2031c (hspX) (VGADEDDIKATYDKG; UniProt P9WMK1 106-120, looked up, fragment)” as the substance, how does the “Restricting HLA locus” value ([1]; donor TU2) read?
**A.** DP, DR

**Q.** And the “Restricting HLA locus” value ([1]; donor TU8)?
**A.** DP, DQ, DR

**Q.** What about the “Restricting HLA locus” value ([1]; donor TU29) of the same substance?
**A.** DP, DR
